# Test system: A375 cells
# Experiment: Melanoma cell growth inhibition (Alamar Blue)
# Type: cell-based
# Details: Homo sapiens, A-375, incubation over 46 hours
# Description: A375 cells from a melanoma cell line were cultured in DMEM medium (GIBCO) supplemented with 10% fetal bovine serum. A375 cells at 10,000 cells/100µl were added to a 96 well plate which contained 1 µl/well of the test compounds (final concentration of 0.001 ~ 30µM). After incubation for over 46 hours, Alamar Blue reagent was added to the medium (10µl/well). Two hours after the addition, a ratio of fluorescent intensity at an excitation wavelength of 530 nm to that at an emission wavelength of 590 nm was measured to determine the IC50 of the test compounds in the same manner as in the above examples.
row,Structure (SMILES),IC50
1,"Cc1ccc([N+](=O)[O-])cc1S(=O)(=O)n1ccc(-c2c(C)nc3ccc(Br)cn23)n1 [Compound 6, 3-(6-Bromo-2-methylimidazo[1,2-a]pyridin-3-yl)-1H-pyrazol-1-yl 2-methyl-5-nitrophenyl sulfone]",< 1000 nM
2,"Cc1ccc([N+](=O)[O-])cc1S(=O)(=O)n1ccc(-c2cnc3ccc(Br)cn23)n1 [Compound 30, 3-(6-bromoimidazo[1,2-a]pyridin-3-yl)-1H-pyrazol-1-yl 2-methyl-5-nitrophenyl sulfone]",< 1000 nM
3,"Cc1ccc([N+](=O)[O-])cc1S(=O)(=O)N(C)N=Cc1cnc2ccc(Br)cn12 [Compound 43, 2'-[(6-bromoimidazo[1,2-a]pyridin-3-yl)methylidene]-1',2-dimethyl-5-nitrobenzenesulfonohydrazide]",< 1000 nM
4,"CCc1ccc([N+](=O)[O-])cc1S(=O)(=O)N(C)N=Cc1cnc2ccc(Br)cn12 [Compound 53, 2'-[(6-bromoimidazo[1,2-a]pyridin-3-yl)methylidene]-2-ethyl-1'-methyl-5-nitrobenzenesulfonohydrazide]",< 1000 nM
5,"Cc1ccc(C#N)cc1S(=O)(=O)N(C)N=Cc1cnc2ccc(Br)cn12 [Compound 54, 3-({2-[(6-bromoimidazo[1,2-a]pyridin-3-yl)methylidene]-1-methylhydrazino}sulfonyl)-4-methylbenzonitrile]",< 1000 nM
6,"Cc1ccc([N+](=O)[O-])cc1S(=O)(=O)N(C)N=Cc1cnc2ccc(F)cn12 [Compound 57, 2'-[(6-fluoroimidazo[1,2-a]pyridin-3-yl)methylidene]-1',2-dimethyl-5-nitrobenzenesulfonohydrazide]",< 1000 nM
7,"CN(N=Cc1cnc2ccc(Cl)cn12)S(=O)(=O)c1cc([N+](=O)[O-])ccc1N [Compound 59, 2-amino-2'-[(6-chloroimidazo[1,2-a]pyridin-3-yl)methylidene]-1'-methyl-5-nitrobenzenesulfonohydrazide]",< 1000 nM
8,"CN(N=Cc1cnc2ccc(Cl)cn12)S(=O)(=O)c1cc([N+](=O)[O-])ccc1OCC(F)(F)F [Compound 60, 2'-[(6-chloroimidazo[1,2-a]pyridin-3-yl)methylidene]-1'-methyl-5-nitro-2-(2,2,2-trifluoroethoxy)benzenesulfonohydrazide]",< 1000 nM
9,"Cc1ccc([N+](=O)[O-])cc1S(=O)(=O)c1nc(-c2cnc3ccc(Cl)cn23)cs1 [Compound 65, 6-chloro-3-[2-(2-methyl-5-nitrobenzenesulfonyl)thiazol-4-yl]imidazo[1,2-a]pyridine]",< 1000 nM
10,"Cc1ccc([N+](=O)[O-])cc1S(=O)(=O)N(CCN1CCOCC1)N=Cc1cnc2ccc(Br)cn12 [Compound 77, 6-bromo-3-{[(2-methyl-5-nitrobenzenesulfonyl)(2-morpholinoethyl)hydrazono]methyl}imidazo[1,2-a]pyridine]",< 1000 nM
11,"Cc1ccc([N+](=O)[O-])cc1S(=O)(=O)N(C)N=Cc1cnc2ccc(Cl)cn12 [Compound 88, 6-chloro-3-{[(methyl)(2-methyl-5-nitrobenzenesulfonyl)hydrazono]methyl}imidazo[1,2-a]pyridine]",< 1000 nM
12,"Cc1ccc([N+](=O)[O-])cc1S(=O)(=O)N(C)N=Cc1cnc2ccc(C#N)cn12 [Compound 93, 3-{[(methyl)(2-methyl-5-nitrobenzenesulfonyl)hydrazono]methyl}imidazo[1,2-a]pyridine-6-carbonitrile]",< 1000 nM
13,"Cc1ccc(C#N)cc1S(=O)(=O)N(C)N=Cc1cnc2ccc(F)cn12 [Compound 95, 5-cyano-2'-[(6-fluoroimidazo[1,2-a]pyridin-3-yl)methylidene]-1',2-dimethylbenzenesulfonohydrazide]",< 1000 nM
14,"Cc1ccc(C#N)cc1S(=O)(=O)N(C)N=Cc1cnc2ccc(C#N)cn12 [Compound 96, 5-cyano-2'-[(6-cyanoimidazo[1,2-a]pyridin-3-yl)methylidene]-1',2-dimethylbenzenesulfonohydrazide]",< 1000 nM
15,"CN(N=Cc1cnc2ccc(Cl)cn12)S(=O)(=O)c1cc([N+](=O)[O-])ccc1-n1ccnc1 [Compound 112, 2'-[(6-chloroimidazo[1,2-a]pyridin-3-yl)methylidene]-2-(1H-imidazol-1-yl)-1'-methyl-5-nitrobenzenesulfonohydrazide]",< 1000 nM
16,"CN(C)c1ccc([N+](=O)[O-])cc1S(=O)(=O)N(C)N=Cc1cnc2ccc(Cl)cn12 [Compound 113, 2'-[(6-chloroimidazo[1,2-a]pyridin-3-yl)methylidene]-2-dimethylamino-1'-methyl-5-nitrobenzenesulfonohydrazide]",< 1000 nM

# Same assay, conditions: incubation over 46 hours
row,Structure (SMILES),IC50
1,"Cc1ccc2ncc(C=NN(C)S(=O)(=O)c3cc([N+](=O)[O-])ccc3C)n2c1 [Compound 99, 1'2-dimethyl-2'-[(6-methylimidazo[1,2-a]pyridin-3-yl)methylidene]-5-nitrobenzenesulfonohydrazide]",< 1000 nM

# Test system: HCT116 cells
# Experiment: Colon cancer cell growth inhibition (Alamar Blue)
# Type: cell-based
# Details: incubation over 72 hours, result in words
# Description: Test Example 2 Colon cancer cell growth inhibition
# HCT116 cells from a colon cancer cell line were cultured in McCoy's 5A medium (GIBCO) supplemented with 10% fetal bovine serum. HCTI 16 cells were inoculated on a 96 well plate (5000 cells/well) followed by overnight incubation. The test compound diluted with the medium was added to the medium in a final concentration of 0.1 to 30µM (final DMSO concentration, 1%). After incubation for over 72 hours, Alamar Blue reagent was added to the medium. Two hours after the addition, a ratio of fluorescent intensity at an excitation wavelength of 530 nm to that at an emission wavelength of 590 nm was measured to determine the IC50.
row,Structure (SMILES),cancer cell growth inhibition activity
1,"Cc1ccc([N+](=O)[O-])cc1S(=O)(=O)n1ccc(-c2c(C)nc3ccc(Br)cn23)n1 [Compound 6, 3-(6-Bromo-2-methylimidazo[1,2-a]pyridin-3-yl)-1H-pyrazol-1-yl 2-methyl-5-nitrophenyl sulfone]",good cancer cell growth inhibition activity

# Source: EP1277754B1, “IMIDAZOPYRIDINE DERIVATIVES” (YAMANOUCHI PHARMACEUTICAL CO. LTD., priority 2000, dated 2001)
